Test results published in patent US20240382489A1, “LIQUID PHARMACEUTICAL COMPOSITION” (Verona Pharma PLC, priority 2023, published 2024).

System: patients aged 40-80 years with moderate to severe COPD
Experiment: Clinical study of nebulised ensifentrine vs placebo in COPD: lung function (FEV1)
Format: in vivo, human
Conditions: 3 mg BID by nebuliser
Method: A clinical study was conducted to determine the efficacy of ensifentrine in treating COPD compared with placebo. Ensifentrine was administered by nebuliser at a dose of 3 mg twice daily (BID) for 24 weeks. The study was a multi-centre, randomized, double-blind, parallel-group, placebo-controlled trial with around 800 patients and 5:3 randomization.
The study population included patients aged 40-80 years with moderate to severe COPD (FEV130%-70% p.n., FEV1/forced vital capacity (FVC) ratio<0.7, with mMRC≥2). The randomization stratified (a) the use of stable background maintenance LAMA or LABA therapy use (approx. 50%. yes or no) and (b) cigarette smoking (current or former). Inhaled corticosteroid (ICS) maintenance therapy was permitted in up to 20% of patients under certain provisions.
The primary endpoint of the study was change from baseline in average FEV1 area under the curve (AUC)0-12 h post-dose at week 12. Secondary endpoints of the study included: peak FEV1 over 4 hours post-dose at Week 12; morning trough FEV1 at Week 12; and other endpoints including moderate/severe COPD exacerbations frequency over 24 Weeks.
Baseline FEV1 is the mean of the two measurements taken before study medication on the day of first dosing, i.e., ≤40 minutes and just prior to dosing, both pre-dose on day 1. […]

With `COc1cc2c(cc1OC)-c1c/c(=N\c3c(C)cc(C)cc3C)n(CCNC(N)=O)c(=O)n1CC2` [Ensifentrine, N-(2-{(2E)-9,10-dimethoxy-4-oxo-2-[(2,4,6-trimethylphenyl)imino]-6,7-dihydro-2H-pyrimido[6,1-a]isoquinolin-3(4H)-yl}ethyl)urea] the “improvement in lung function in all subgroups of COPD patients” value was “statistically significant improvement in lung function”.
